Test results reported in paper PMC5520994 (Science signaling, 2017).
Entries after “also recorded” stand apart in the source; their conditions may differ. Read-outs that look alike come from different tables or passages of the source. Blank lines part the entries; values can stand above or below the molecule they belong to.

Legend:
IL-17A/IL-17RA binding = IL-17A/IL-17RA binding (Homo sapiens, UniProt Q96F46); experiment: Ligand-receptor binding inhibition assay
IL-17RA (WT) = IL-17RA (WT) (Homo sapiens, UniProt Q96F46); experiment: Fluorescence quenching assay of A18 binding to labeled IL-17RA
Chain of IL-17RA (WT) (Q96F46 33-320 limits assumed): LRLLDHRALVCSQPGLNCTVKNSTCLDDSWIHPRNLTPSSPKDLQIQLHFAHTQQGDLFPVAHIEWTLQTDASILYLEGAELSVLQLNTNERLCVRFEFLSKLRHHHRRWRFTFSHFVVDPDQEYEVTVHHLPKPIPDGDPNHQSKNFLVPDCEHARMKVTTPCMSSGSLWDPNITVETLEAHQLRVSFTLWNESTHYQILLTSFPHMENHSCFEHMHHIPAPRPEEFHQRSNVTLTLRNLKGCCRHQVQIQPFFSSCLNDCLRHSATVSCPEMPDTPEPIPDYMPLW

WT C57BL/6 mice [1] = experiment: HDM-induced severe asthma model; format: in vivo; conditions: A18 120 μg per mouse i.p. days 13 and 14 plus 60 μg per mouse intranasally 1 hour before challenge
IL-17A [2] = experiment: IL-17A–stimulated cytokine and chemokine production in human cells; format: cell-based; conditions: 24 hours, ELISA
IL-17A [3] = experiment: IL-17A–mediated signaling events in HeLa cells; format: cell-based, human
IL-17E [4] = format: cell-based, mouse; conditions: IL-17RB–expressing MEFs, 24 hours
WT BALB/cJ mice [5] = experiment: Intranasal injection of IL-17A, pulmonary neutrophilia; format: in vivo; conditions: A18 60 μg per mouse intranasally, 4 hours
IL-17RA D262A mutant [6] = molecular target: T1, IL-17RA D262A mutant (Homo sapiens, UniProt Q96F46, D293A); experiment: Fluorescence quenching assay of A18 binding to labeled IL-17RA D262A mutant
T1 sequence (Q96F46 33-320 D293A): as the sequence (Q96F46 33-320 limits assumed) above, with D261A counted along it

WT C57BL/6J mice = experiment: Adoptive transfer of MOG-specific TH17 cells to induce EAE; format: in vivo, mouse
IL-17C/IL-17RE binding = molecular target: T2, IL-17C/IL-17RE binding (Homo sapiens, UniProt Q8NFR9); experiment: Ligand-receptor binding inhibition assay; conditions: serial dilutions, purified proteins
T2 sequence (Q8NFR9 155-454): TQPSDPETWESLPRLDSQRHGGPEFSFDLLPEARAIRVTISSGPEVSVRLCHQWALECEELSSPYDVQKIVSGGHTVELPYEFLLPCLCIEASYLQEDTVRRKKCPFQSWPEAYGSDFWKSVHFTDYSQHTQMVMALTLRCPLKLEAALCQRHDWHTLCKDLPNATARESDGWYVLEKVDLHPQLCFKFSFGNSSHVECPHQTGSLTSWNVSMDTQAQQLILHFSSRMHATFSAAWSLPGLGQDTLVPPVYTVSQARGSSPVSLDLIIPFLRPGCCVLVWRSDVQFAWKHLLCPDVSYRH

IL-17A [7] = experiment: IL-17A–stimulated cytokine and chemokine production in mouse cells; format: cell-based; conditions: 24 hours, ELISA
WT C57BL/6 mice [8] = experiment: Intradermal injection of IL-17A into ears, epidermal hyperplasia; format: in vivo, mouse; conditions: IL-17 plus A18 vs PBS-treated mice, RT-PCR
WT C57BL/6 mice [9] = experiment: TPA-induced skin hyperplasia; format: in vivo, mouse; conditions: dorsal skin, RT-PCR (Myc, Cxcl1, Steap4), day 7
IL-17E [10] = experiment: IL-17E–stimulated CXCL1 production / target gene expression in HT29 cells; format: cell-based, human; conditions: 24 hours
[11] = molecular target: IL-17RA on IL-17RA–293 cells and HeLa cells (Homo sapiens, UniProt Q96F46); experiment: Binding of biotinylated IL-17A to live cells, flow cytometry; format: cell-based; conditions: A18 10 μM
Chain of IL-17RA on IL-17RA–293 cells and HeLa cells (Q96F46 33-866): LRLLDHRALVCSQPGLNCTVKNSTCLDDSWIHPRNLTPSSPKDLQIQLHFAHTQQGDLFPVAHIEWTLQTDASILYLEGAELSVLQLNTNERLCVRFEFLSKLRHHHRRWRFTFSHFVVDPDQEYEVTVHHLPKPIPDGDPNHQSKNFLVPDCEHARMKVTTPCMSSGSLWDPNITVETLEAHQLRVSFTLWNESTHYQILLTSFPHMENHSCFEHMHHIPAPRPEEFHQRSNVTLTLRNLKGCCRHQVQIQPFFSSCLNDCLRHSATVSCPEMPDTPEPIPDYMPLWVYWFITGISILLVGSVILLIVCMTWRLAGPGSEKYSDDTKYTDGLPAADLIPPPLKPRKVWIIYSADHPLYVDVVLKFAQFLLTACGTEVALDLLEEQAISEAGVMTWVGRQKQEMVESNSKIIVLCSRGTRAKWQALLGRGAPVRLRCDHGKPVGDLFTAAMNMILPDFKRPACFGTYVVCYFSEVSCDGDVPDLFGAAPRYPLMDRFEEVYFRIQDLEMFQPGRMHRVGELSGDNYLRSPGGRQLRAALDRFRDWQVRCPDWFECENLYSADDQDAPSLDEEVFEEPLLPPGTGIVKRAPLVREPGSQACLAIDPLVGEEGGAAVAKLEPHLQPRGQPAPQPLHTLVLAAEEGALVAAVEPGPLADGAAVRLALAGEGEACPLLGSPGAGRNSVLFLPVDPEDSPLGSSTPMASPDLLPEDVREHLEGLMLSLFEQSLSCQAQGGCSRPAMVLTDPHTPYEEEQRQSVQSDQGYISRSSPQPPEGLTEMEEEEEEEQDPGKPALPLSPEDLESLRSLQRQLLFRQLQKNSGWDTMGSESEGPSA

IL-17A/IL-17F = experiment: IL-17A/IL-17F–stimulated expression of target genes in cultured cells; format: cell-based
WT C57BL/6 mice [12] = experiment: Adoptive transfer of OVA-specific TH2 cells, eosinophilic airway inflammation; format: in vivo, mouse; conditions: RT-PCR
WT BALB/cJ mice [13] = experiment: Intranasal injection of IL-17E, pulmonary eosinophilia; format: in vivo; conditions: A18 60 μg per mouse intranasally, 24 hours
IL-17E/IL-17RB binding = molecular target: T3, IL-17E/IL-17RB binding (Homo sapiens, UniProt Q9NRM6); experiment: Ligand-receptor binding inhibition assay; conditions: serial dilutions, purified proteins
T3 sequence (Q9NRM6 18-289): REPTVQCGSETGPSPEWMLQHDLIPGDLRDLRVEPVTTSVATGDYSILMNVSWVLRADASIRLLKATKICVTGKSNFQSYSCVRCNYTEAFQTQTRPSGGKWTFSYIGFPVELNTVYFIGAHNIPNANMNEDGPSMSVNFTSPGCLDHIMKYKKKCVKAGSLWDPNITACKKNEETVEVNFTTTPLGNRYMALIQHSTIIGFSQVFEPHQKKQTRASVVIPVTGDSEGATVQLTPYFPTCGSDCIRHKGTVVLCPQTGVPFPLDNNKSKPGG

IL-17RA = IL-17RA (Homo sapiens, UniProt Q96F46); experiment: Surface plasmon resonance; format: binding; conditions: immobilized IL-17RA on CM5 chip
Chain of IL-17RA (Q96F46 33-320 limits assumed): as the sequence (Q96F46 33-320 limits assumed) above

IL-17F = experiment: IL-17F–stimulated expression of target genes in cultured cells; format: cell-based
WT C57BL/6 mice [14] = experiment: Adoptive transfer of OVA-specific TH17 cells, neutrophilic airway inflammation; format: in vivo, mouse; conditions: TH17 cell transfer, RT-PCR
IL-17RA D262A mutant [15] = molecular target: T1, IL-17RA D262A mutant; experiment: Microscale thermophoresis of IL-17A binding to IL-17RA D262A mutant; conditions: read-out: binding affinity (Kd) of IL-17RA D262A for IL-17A, MST
[16] = molecular target: human IL-17RA D262A mutant protein (soluble, secreted, hexahistidine-tagged) (human); experiment: MST
human IL-17RE-Fc = molecular target: T4, human IL-17RE-Fc (human, UniProt Q8NFR9 155-454); experiment: ELISA
T4 sequence (looked up): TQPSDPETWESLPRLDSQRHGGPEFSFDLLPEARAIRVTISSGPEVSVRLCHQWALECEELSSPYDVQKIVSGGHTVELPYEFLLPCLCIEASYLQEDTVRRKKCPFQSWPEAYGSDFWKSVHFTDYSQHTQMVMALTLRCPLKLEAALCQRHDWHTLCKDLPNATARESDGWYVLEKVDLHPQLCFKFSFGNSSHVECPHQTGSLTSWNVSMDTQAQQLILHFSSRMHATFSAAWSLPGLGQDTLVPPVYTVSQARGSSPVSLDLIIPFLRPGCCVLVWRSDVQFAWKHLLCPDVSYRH

human IL-17RB-Fc = molecular target: T5, human IL-17RB-Fc (human, UniProt Q9NRM6 18-289); experiment: ELISA
T5 sequence (looked up): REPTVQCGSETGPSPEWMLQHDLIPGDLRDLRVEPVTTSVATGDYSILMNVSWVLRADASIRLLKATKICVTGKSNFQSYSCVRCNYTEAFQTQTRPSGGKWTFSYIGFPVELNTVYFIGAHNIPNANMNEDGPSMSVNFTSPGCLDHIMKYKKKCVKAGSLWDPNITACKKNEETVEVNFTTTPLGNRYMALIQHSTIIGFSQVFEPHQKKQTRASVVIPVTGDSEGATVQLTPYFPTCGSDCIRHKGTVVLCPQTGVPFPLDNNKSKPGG

[17] = TH17 cell–mediated EAE, flow cytometry

Chain of IL-17A/IL-17RA binding (Q96F46 33-322): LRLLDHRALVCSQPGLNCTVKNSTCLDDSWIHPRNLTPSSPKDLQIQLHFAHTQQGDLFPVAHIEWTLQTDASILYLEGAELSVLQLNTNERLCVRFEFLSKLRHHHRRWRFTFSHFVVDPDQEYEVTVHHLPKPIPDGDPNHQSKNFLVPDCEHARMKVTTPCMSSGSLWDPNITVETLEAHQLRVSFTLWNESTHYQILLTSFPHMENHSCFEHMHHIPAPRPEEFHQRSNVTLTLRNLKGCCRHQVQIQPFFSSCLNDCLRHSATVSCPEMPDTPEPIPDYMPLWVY

Molecule: Oc1cc(O)c2cc(O)c(-c3cc(O)c(O)c(O)c3)[o+]c2c1 [A10, delphinidin]
IC50 value compared to that of A18, IL-17A/IL-17RA binding (IL-17A/IL-17RA binding; in words, relative to A18): slightly improved

Molecule: Oc1cc(O)c2cc(O)c(-c3ccc(O)c(O)c3)[o+]c2c1.[Cl-] [A18, 2-(3,4-dihydroxyphenyl)-3,5,7-trihydroxy-1-benzopyrylium chloride]
Kd (IL-17RA (WT)): ~3 µM | HDM-induced AHR (WT C57BL/6 mice [1]): substantially reduced | HDM-induced inflammatory gene expression in the lungs (WT C57BL/6 mice [1]): substantially reduced | HDM-induced neutrophilia (WT C57BL/6 mice [1]): substantially reduced | IL-17A–stimulated production of CXCL1 (GROα), IL-6 and IL-8 (IL-17A [2]): substantially inhibited | IL-17A–mediated recruitment of Act1 to IL-17RA (IL-17A [3]; 10 μM A18): decreased | IL-17A–mediated phosphorylation of IκBα, JNK, p38 and ERK1/2 (IL-17A [3]; pretreated 1 hour with 10 μM A18): decreased | IL-17E–stimulated production of CXCL1 / expression of target genes (IL-17E [4]): limited inhibitory activity; also recorded: little effect | IL-17A–induced pulmonary neutrophilia (WT BALB/cJ mice [5]): substantially inhibited | expression of IL-17A target genes (Cxcl1, Il6, Ccl11) in lung (WT BALB/cJ mice [5]): substantially inhibited | Kd (IL-17RA D262A mutant [6]): 6.35 µM | EAE disease severity (peak and remission stages) after cessation of A18 (WT C57BL/6J mice; A18 withdrawn on day 15, compared with mice never treated with A18): substantially reduced | numbers of CD4+CD25+Foxp3+ Treg cells in lymphoid organs or CNS (WT C57BL/6J mice; EAE recovery phase (day 20)): did not affect | demyelination in the spinal cords (WT C57BL/6J mice; TH17 cell–mediated EAE): diminished demyelination | expression of IL-17A target genes (WT C57BL/6J mice; TH17 cell–mediated EAE): reduced expression | infiltration into the brains of CD4+ T cells, CD8+ T cells or F4/80+ macrophages (WT C57BL/6J mice; [17]): no effect | recruitment of Ly6G+ neutrophils into the brains (WT C57BL/6J mice; [17]): substantially reduced | disruption of IL-17C/IL-17RE binding (IL-17C/IL-17RE binding): did not efficiently disrupt | IC50 (IL-17A/IL-17RA binding): 1.68 µM | IL-17A–stimulated production of CXCL1 (KC), IL-6 and CXCL2 (MIP-2) (IL-17A [7]): substantially inhibited | abundances of Myc, Cxcl1 and Steap4 mRNAs in the ears (WT C57BL/6 mice [8]): not substantially increased | TPA-induced expression of target genes (WT C57BL/6 mice [9]): substantially reduced | IL-17E–stimulated production of CXCL1 / expression of target genes (IL-17E [10]): limited inhibitory activity; also recorded: little effect | binding of IL-17A to ectopically expressed or endogenous IL-17RA on live cells [11]: inhibited | IL-17A/IL-17F–stimulated expression of target genes (IL-17A/IL-17F): inhibited | expression of genes encoding TH2 cell–type cytokines in the lungs (WT C57BL/6 mice [12]): no effect | IL-17E–induced pulmonary eosinophilia (WT BALB/cJ mice [13]): did not inhibit | TH2 cell–associated gene expression in lung (WT BALB/cJ mice [13]; IL-17E): did not inhibit | disruption of IL-17E/IL-17RB binding (IL-17E/IL-17RB binding): did not efficiently disrupt | binding to IL-17RA by SPR (IL-17RA): confirmed the binding | IL-17F–stimulated expression of target genes (IL-17F): inhibited | inflammatory gene expression in the lungs (WT C57BL/6 mice [14]): substantially reduced

Molecule: OC[C@H]1O[C@@H](Oc2cc3c(O)cc(O)cc3[o+]c2-c2ccc(O)c(O)c2)[C@H](O)[C@@H](O)[C@@H]1O [cyanidin-3-O-glucoside]
IC50 (IL-17A/IL-17RA binding; read-out: IC50, inhibition of IL-17A/IL-17RA binding, in vitro ligand-receptor binding inhibition assay, purified proteins): 6.88 µM

Molecule: IL-17A: purified recombinant human interleukin-17A, cytokine ligand of IL-17RA
Kd (IL-17RA D262A mutant [15]): 1.57 µM

B1: purified recombinant human IL-17C (ligand, UniProt Q9P0M4 19-197, looked up)
chain: HHDPSLRGHPHSHGTPHCYSAEELPLGQAPPHLLARGAKWGQALPVALVSSLEAASHRGRHERPSATTQCPVLRPEEVLEADTHQRSISPWRYRVDTDEDRYPQKLAFAECLCRGCIDARTGRETAALNSVRLLQSLLVLRRRPCSRDGSGLPTPGAFAFHTEFIHVPVGCTCVLPRSV
binding result (human IL-17RE-Fc): binds

B2: purified recombinant human IL-17E (IL-25) (ligand, UniProt Q9H293 33-177, looked up)
chain: YSHWPSCCPSKGQDTSEELLRWSTVPVPPLEPARPNRHPESCRASEDGPLNSRAISPWRYELDRDLNRLPQDLYHARCLCPHCVSLQTGSHMDPRGNSELLYHNQTVFYRRPCHGEKGTHKGYCLERRLYRVSLACVCVRPRVMG
binding result (human IL-17RB-Fc): binds

The remaining lines, values ahead:

IC50 (IL-17A/IL-17RA binding): 6.75 µM
Molecule: Oc1cc(O)c2ccc(-c3ccc(O)c(O)c3)[o+]c2c1 [luteolinidin]

IC50 (IL-17A/IL-17RA binding): > 100 µM
Molecule: Oc1ccc(-c2[o+]c3cc(O)cc(O)c3cc2O)cc1 [pelargonidin]

Kd [16]: 1.57 µM
Molecule: purified recombinant human IL-17A (from UniProt Q16552 24-155) (ligand)
